Measured values published in PubChem BioAssay AID248 (DTP/NCI, 2004).
Inconclusive results and toxic doses are left out. Rule as the data show it: active = T/C of 150% or more; inactive = T/C below 125%.

Tested on: L1210 leukemia ip in BDF1 mice, survival T/C
Test: NCI In Vivo Anticancer Drug Screen. Data for tumor model L1210 Leukemia (intraperitoneal) in B6D2F1 (BDF1) mice
Conditions: endpoint: mean survival time, higher = longer survival
In short: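 In this screen, tumor-bearing mice given compound are compared to those given vehicle, and their survival values are reported as a treated-to-control quotient.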

[1] = dose: 100.0 mg/kg/injection, schedule: Q01DX001 (ip), vehicle: Klucel (hydroxypropylcellulose) (HPC)
[2] = dose: 200.0 mg/kg/injection, schedule: Q01DX001 (ip), vehicle: Klucel (hydroxypropylcellulose) (HPC)
[3] = dose: 400.0 mg/kg/injection, schedule: Q01DX001 (ip), vehicle: Klucel (hydroxypropylcellulose) (HPC)
[4] = dose: 100.0 mg/kg/injection, schedule: Q04DX003 (ip), vehicle: saline
[5] = dose: 200.0 mg/kg/injection, schedule: Q04DX003 (ip), vehicle: saline
[6] = dose: 400.0 mg/kg/injection, schedule: Q04DX003 (ip), vehicle: saline
[7] = dose: 100.0 mg/kg/injection, schedule: Q04DX002 (ip), vehicle: saline with Tween-80
[8] = dose: 200.0 mg/kg/injection, schedule: Q04DX002 (ip), vehicle: saline with Tween-80
[9] = dose: 400.0 mg/kg/injection, schedule: Q04DX002 (ip), vehicle: saline with Tween-80
[10] = dose: 100.0 mg/kg/injection, schedule: Q04DX003 (ip), vehicle: saline with Tween-80
[11] = dose: 200.0 mg/kg/injection, schedule: Q04DX003 (ip), vehicle: saline with Tween-80
[12] = dose: 400.0 mg/kg/injection, schedule: Q04DX003 (ip), vehicle: saline with Tween-80
[13] = dose: 100.0 mg/kg/injection, schedule: Q04DX003 (ip), vehicle: Klucel (hydroxypropylcellulose) (HPC)
[14] = dose: 200.0 mg/kg/injection, schedule: Q04DX003 (ip), vehicle: Klucel (hydroxypropylcellulose) (HPC)
[15] = dose: 400.0 mg/kg/injection, schedule: Q04DX003 (ip), vehicle: Klucel (hydroxypropylcellulose) (HPC)
[16] = dose: 50.0 mg/kg/injection, schedule: Q01DX009 (ip), vehicle: Klucel (hydroxypropylcellulose) (HPC)
[17] = dose: 100.0 mg/kg/injection, schedule: Q01DX009 (ip), vehicle: Klucel (hydroxypropylcellulose) (HPC)
[18] = dose: 200.0 mg/kg/injection, schedule: Q01DX009 (ip), vehicle: Klucel (hydroxypropylcellulose) (HPC)
[19] = dose: 100.0 mg/kg/injection, schedule: Q04DX002 (ip), vehicle: saline
[20] = dose: 200.0 mg/kg/injection, schedule: Q04DX002 (ip), vehicle: saline
[21] = dose: 400.0 mg/kg/injection, schedule: Q04DX002 (ip), vehicle: saline

Measured: T/C

O=C(c1cccc([N+](=O)[O-])c1)c1cccc([N+](=O)[O-])c1
inactive: [1] 117 % of control | [2] 97 % of control | [3] 94 % of control

CC(=O)NC(C)(CCOCc1ccccc1)C(=O)O (stereo not drawn)
inactive: dose: 50.0 mg/kg/injection, schedule: Q01DX001 (ip), vehicle: carboxymethylcellulose (CMC) 94 % of control | dose: 100.0 mg/kg/injection, schedule: Q01DX001 (ip), vehicle: carboxymethylcellulose (CMC) 100 % of control | dose: 200.0 mg/kg/injection, schedule: Q01DX001 (ip), vehicle: carboxymethylcellulose (CMC) 110 % of control | dose: 400.0 mg/kg/injection, schedule: Q01DX001 (ip), vehicle: carboxymethylcellulose (CMC) 96 % of control

COc1ccc(CC(=O)O)c(OC)c1
inactive: dose: 100.0 mg/kg/injection, schedule: Q01DX007 (ip), vehicle: saline with Tween-80 98 % of control | [4] 94 % of control | dose: 200.0 mg/kg/injection, schedule: Q01DX007 (ip), vehicle: saline with Tween-80 95 % of control | [5] 99 % of control | [6] 94 % of control

O=C(Nc1ccccc1Cl)Nc1ccccc1Br
inactive: dose: 100.0 mg/kg/injection, schedule: Q04DX002 (ip), vehicle: saline + alcohol 103 % of control | dose: 200.0 mg/kg/injection, schedule: Q04DX002 (ip), vehicle: saline + alcohol 96 % of control | dose: 400.0 mg/kg/injection, schedule: Q04DX002 (ip), vehicle: saline + alcohol 92 % of control

COc1ccc(OC=O)cc1OC
inactive: dose: 50.0 mg/kg/injection, schedule: Q01DX009 (ip), vehicle: saline 98 % of control | dose: 100.0 mg/kg/injection, schedule: Q01DX009 (ip), vehicle: saline 102 % of control | dose: 100.0 mg/kg/injection, schedule: Q04DX003 (ip), vehicle: acetone 97 % of control | dose: 200.0 mg/kg/injection, schedule: Q01DX009 (ip), vehicle: saline 101 % of control | dose: 200.0 mg/kg/injection, schedule: Q04DX003 (ip), vehicle: acetone 107 % of control

CC(CCl)OP(=O)(Cc1ccccc1)OC(C)CCl (stereo not drawn)
inactive: [7] 91 % of control | [8] 98 % of control | [9] 98 % of control

Cc1ccc(-c2nc3ncncc3[nH]2)cc1[N+](=O)[O-]
inactive: dose: 32.5 mg/kg/injection, schedule: Q01DX001 (ip), vehicle: Klucel (hydroxypropylcellulose) (HPC) 100 % of control | dose: 65.0 mg/kg/injection, schedule: Q01DX001 (ip), vehicle: Klucel (hydroxypropylcellulose) (HPC) 102 % of control | dose: 130.0 mg/kg/injection, schedule: Q01DX001 (ip), vehicle: Klucel (hydroxypropylcellulose) (HPC) 97 % of control

NCC1COc2ccccc2O1 (stereo not drawn)
inactive: dose: 75.0 mg/kg/injection, schedule: Q01DX001 (ip), vehicle: carboxymethylcellulose (CMC) 98 % of control | dose: 150.0 mg/kg/injection, schedule: Q01DX001 (ip), vehicle: carboxymethylcellulose (CMC) 96 % of control | dose: 300.0 mg/kg/injection, schedule: Q01DX001 (ip), vehicle: carboxymethylcellulose (CMC) 96 % of control

CC1(C)OCC(C2OC3OC(c4ccccc4)=NC3C2O)O1 (stereo not drawn)
inactive: [1] 96 % of control | [2] 104 % of control | [3] 101 % of control

CSc1ccc2[nH]c3c(c2c1)CCNC3
inactive: [10] 108 % of control | [11] 105 % of control | [12] 98 % of control

CCC(=O)c1ccc(O)cc1
inactive: [13] 102 % of control | [14] 102 % of control | [15] 102 % of control

Cc1cccc(C)c1N1C(=O)CCC1=O
inactive: [16] 98 % of control | [17] 96 % of control | [13] 94 % of control | [18] 100 % of control | [14] 97 % of control | dose: 400.0 mg/kg/injection, schedule: Q01DX009 (ip), vehicle: Klucel (hydroxypropylcellulose) (HPC) 100 % of control | [15] 100 % of control

O=C1C2C3CCC(O3)C2C(=O)N1CCO (stereo not drawn)
inactive: [19] 109 % of control | [20] 106 % of control | [21] 98 % of control

O=C(NCCc1ccccc1)Nc1ccccc1Cl
inactive: dose: 100.0 mg/kg/injection, schedule: Q01DX009 (ip), vehicle: gum acacia 96 % of control | dose: 100.0 mg/kg/injection, schedule: Q04DX003 (ip), vehicle: gum acacia 92 % of control | dose: 200.0 mg/kg/injection, schedule: Q01DX009 (ip), vehicle: gum acacia 115 % of control | dose: 200.0 mg/kg/injection, schedule: Q04DX003 (ip), vehicle: gum acacia 92 % of control | dose: 400.0 mg/kg/injection, schedule: Q01DX009 (ip), vehicle: gum acacia 100 % of control | dose: 400.0 mg/kg/injection, schedule: Q04DX003 (ip), vehicle: gum acacia 97 % of control

Nc1ccc(C(=O)NC(CCC(=O)O)C(=O)O)cc1 (stereo not drawn)
inactive: [7] 92 % of control | [8] 95 % of control | [9] 92 % of control

NC(=O)NC1CON(C(N)=O)C1=O (stereo not drawn)
inactive: [19] 94 % of control | [20] 112 % of control | [21] 94 % of control

CCOC(C(=O)OC1CCN(C)CC1)(c1ccccc1)c1ccccc1
inactive: dose: 25.0 mg/kg/injection, schedule: Q04DX003 (ip), vehicle: saline 97 % of control | dose: 50.0 mg/kg/injection, schedule: Q04DX003 (ip), vehicle: saline 96 % of control | [10] 93 % of control | [4] 97 % of control

CC(C)(C)C(=O)[CH-]C(=O)C(C)(C)C.CC(C)(C)C(=O)[CH-]C(=O)C(C)(C)C.CC(C)(C)C(=O)[CH-]C(=O)C(C)(C)C.CN(C)C=O.[Er+3]
inactive: [7] 105 % of control | [8] 94 % of control | [9] 94 % of control

COc1ccc2c(ccc3c2ncc2c(=O)[nH]n(C)c23)c1
inactive: [16] 93 % of control | [17] 93 % of control | [18] 93 % of control

CC#CC(=O)SCCNC(=O)CC
inactive: dose: 25.0 mg/kg/injection, schedule: Q01DX009 (ip), vehicle: saline with Tween-80 104 % of control | dose: 50.0 mg/kg/injection, schedule: Q01DX009 (ip), vehicle: saline with Tween-80 96 % of control | [10] 103 % of control | [11] 91 % of control

CC[N+]1(C)CCC(CN2c3ccccc3Sc3ccccc32)C1 (stereo not drawn)
inactive: [10] 100 % of control | [11] 103 % of control | [12] 100 % of control

NS(=O)(=O)c1c[nH]c(=O)[nH]c1=O
inactive: [4] 104 % of control | [5] 102 % of control | [6] 102 % of control

COc1ccc2c(cc1=O)CC=CC1CC(OC)C(OC)C(OC)C21 (stereo not drawn)
inactive: [10] 92 % of control | [11] 93 % of control | [12] 101 % of control
